Two compounds from US8957019B2, “Oligopeptide for treating liver fibrosis and/or treating hepatitis B and/or improving liver function” (priority 2011, dated 2015) can be followed below.

Read-outs that look alike come from different tables or passages of the source. Marks after values point to notes of the source that are not given here. Peptide text beside a SMILES is read from it.

For assay [1], the system named is mice with liver injury induced by carbon tetrachloride. In words: acute liver injury of mice induced by carbon tetrachloride. Type of assay: in vivo, Kunming mice. The following applies: for serum ALT activity / serum AST activity: blood 12 h after CCl4; for serum ALT activity / serum AST activity / GSH-PX activity of liver tissue / MDA content of liver tissue: x ± s, n = 12; for GSH-PX activity of liver tissue / MDA content of liver tissue: liver homogenate. The protocol: According to random number table, 60 male Kunming mice were divided into a normal control group, a model control group, a bifendate group, a heptapeptide large dose group and a heptapeptide small dose group, and the latter two groups were administered subcutaneously at 0.17 mg/kg and 0.085 mg/kg, respectively, once every two days for 7 d; the bifendate group was intragastric administered at 100 mg/kg once daily for 7 d; and the normal control group and model control group were administered subcutaneously with the same volume of physiological saline; after 1 h after the last administration, except for the normal control group, other groups were given olive oil solution comprising 0.15% carbon tetrachloride at 5 mL/kg by intraperitoneal injection. Each group was fasted but not restraint from water. Blood was taken from eyeball after 12 h, and the serum was separated for use. The mice were killed after the blood was taken, then dissected and the liver were taken out and homogenized for use. For mice from each group, the ALT, AST activities in the serum, and GSH-Px activity and MDA content in liver tissue were measured according to the kit instruction, and all data were expressed as mean±standard deviation (x±SD), and analysis of variance was used for the hypothesis test of mean value differences between each group.

The test system of another assay is rats with liver fibrosis. In words: CCl4 liver fibrosis model of rats. It is filed as in vivo, SD rats. Particulars: for collogen area of liver tissue / serum ALT level / serum AST level: 8 weeks, x ± s, n = 12. The procedure: 2. Methods: 48 rats were randomly divided into a control group, a model group, a heptapeptide large dose group and a heptapeptide small dose group, each group contains 12 rats. CCI4was formulated into 40% solution with olive oil, and the solution was then injected subcutaneously to the animals at 5 ml/kg twice a week for 8 weeks; the intervention group with GAGPHGG was given the heptapeptide subcutaneously (the concentrations was 0.12 mg/kg and 0.06 mg/kg, respectively, once every two days, 8 weeks) while the model was setting up. The animals of each group were killed at 48 h after the last injection of CCI4, and then serum and liver tissue were taken for detection. The serum ALT, AST and TGFβ1 level were measured according to the kit instruction, and the liver tissue sample was fixed with neutral formalin solution and imbedded with paraffin. 5 ttm tissue section was made by using glass slide coated with polylysine, and it was then stained with HE and Masson triplication collogen for histopathological examination.

Assay [2] deals with duck hepatitis B virus (DHBV). Type of assay: in vivo, Beijing ducks. Particulars: for A (3 d after administration was terminated), serum DHBV-DNA level: 3 d after stop; for A (3 d after administration was terminated), serum DHBV-DNA level / A (5 d after administration), serum DHBV-DNA level / A (10 d after administration), serum DHBV-DNA level / A (before administration), serum DHBV-DNA level: x ± s, n = 6; for A (5 d after administration), serum DHBV-DNA level: day 5 of administration; for A (10 d after administration), serum DHBV-DNA level: day 10 of administration; for A (before administration), serum DHBV-DNA level: baseline before administration, absorbance 490 nm. The procedure:
2.1 DHBV infection: Beijing ducks of one-day-old were administered from leg tibia (iv) with high DHBV-DNA positive duck serum. Blood was taken 7 d after infection, followed by the serum being separated and kept at -70° C.
2.2 experiment for pharmaceutical treatment: the DHBV infected ducks were divided into groups randomly, and for the heptapeptide administration groups, 0.5 mg/Kg and 1 mg/Kg were administered by subcutaneous injection, once every two days for 10 d, respectively. As for the virus control group, physiological saline was substituted for drugs. […] Venous blood was taken from the duck leg tibia before administration, on day 5 of administration, on day 10 of administration and 3 d after the administration was stopped. The serum was separated and kept at -70° C. for inspection.
2.3 detecting method: the duck serum for inspection above mentioned was taken and the dynamic level of DHBV-DNA in the serum was detected by simultaneous spotting each batch. DHBV-DNA probe was tagged with 32 p according to the instructions of nick translation kits, and then dot blot hybridization with the duck serum was carried out. The spots on the film were detected by radioautography, and the absorbance (A) (490 nm) was measured. Then density of serum DHBV-DNA was calculated by using the A value of hybridization spots as the level of DHBV-DNA in sample.
2.4 efficacy calculation: the x±s of serum DHBV-DNA levels at different time point for each group was calculated, and it is carried out to compare the states before and after administration for each group by using paired t-test. The inhibition ratio of DHBV-DNA was calculated and the dynamic change of the duck serum DHBV-DNA inhibition ratio for each group was compared. The administration groups were compared with the virus control group by using group t-test. The DHBV-DNA inhibition ratio=(A value before administration-A value after administration)/A value before administrationx100%.

The mark [3] stands for this setting: 100 mg/kg intragastric once daily for 7 d.
Setting [4] is: 0.06 mg/kg s.c. once every two days.
[5] abbreviates: 0.12 mg/kg s.c. once every two days.
The mark [6] stands for this setting: heptapeptide large dose, P<0.01.
Where [7] appears, read: 0.5 mg/kg s.c. once every two days.
[8] abbreviates: 0.085 mg/kg s.c. once every two days for 7 d.
[9] abbreviates: 0.17 mg/kg s.c. once every two days for 7 d.
[10] abbreviates: large dose and small dose groups, P<0.01.

Turning to `COC(=O)c1cc(OC)c2c(c1-c1c(C(=O)OC)cc(OC)c3c1OCO3)OCO2` [biphenyldicarboxylate, bifendate, reference compound], in assay [1] (setting [3]), the “serum ALT activity” value amounted to 92.36 ± 35.27 U/L, the “serum AST activity” value is given as 156.24 ± 34.12 U/L, the “GSH-PX activity of liver tissue” value is 296.82 ± 18.31 µmol/g and the “MDA content of liver tissue” value worked out at 5.29 ± 1.25 µmol/g.

As for `C[C@H](NC(=O)CN)C(=O)NCC(=O)N1CCC[C@H]1C(=O)N[C@@H](Cc1c[nH]cn1)C(=O)NCC(=O)NCC(=O)O` [heptapeptide, Gly-Ala-Gly-Pro-His-Gly-Gly] (H-GAGPHGG-OH; N-terminus assumed), in the assay on rats with liver fibrosis (setting [4]), the “collogen area of liver tissue” value came to 380.82 ± 78.89 μm^2, the “serum ALT level” value was 148.24 ± 32.52 U/L and the “serum AST level” value worked out at 180.35 ± 28.49 U/L. For the same compound, in the assay on rats with liver fibrosis (setting [5]), the “collogen area of liver tissue” value was 138.12 ± 62.58** μm^2, the “serum ALT level” value is given as 96.37 ± 35.12 U/L and the “serum AST level” value worked out at 108.75 ± 42.21 U/L. In the assay on rats with liver fibrosis (setting [6]), the “mean area of liver collagen compared with model group” value is listed as “also decreased significantly” and the “serum TGFβ1 level compared with model group” value is listed as “decreased significantly”. Moreover, the “serum TGFβ1 level and liver collagen area compared with model group” value in the assay on rats with liver fibrosis (heptapeptide small dose group) is listed as “had a decreasing trend, but not statistically significant”. For the same compound, the “ALT and AST levels compared with model control group” value in the assay with rats with liver fibrosis (large dose (0.12 mg/kg) and small dose (0.06 mg/kg) groups, P<0.01) is “significantly declined”. The “anti-liver fibrosis effect (conclusion)” value in the assay with rats with liver fibrosis (rats, CCl4) is reported as “has some anti-liver fibrosis effect”. Further, in assay [2] (0.5 mg/kg s.c. once every two days for 10 d), the “A (3 d after administration was terminated), serum DHBV-DNA level” value amounted to 1.184 ± 0.19. Besides, in assay [2] (setting [7]), the “A (5 d after administration), serum DHBV-DNA level” value stood at 1.239 ± 0.16 and the “A (10 d after administration), serum DHBV-DNA level” value was found to be 1.198 ± 0.18. Moreover, the “inhibition of duck hepatitis B virus (conclusion)” value in assay [2] (1 mg/kg) is “can inhibit duck hepatitis B virus to some extent”. Moreover, the “A (3 d after administration was terminated), serum DHBV-DNA level” value in assay [2] (1 mg/kg s.c. once every two days for 10 d, P < 0.01 vs control) amounted to 0.884 ± 0.16. The “A (5 d after administration), serum DHBV-DNA level” value in assay [2] (1 mg/kg s.c. once every two days) amounted to 1.204 ± 0.21. For the same compound, the “A (10 d after administration), serum DHBV-DNA level” value in assay [2] (1 mg/kg s.c. once every two days, P < 0.01 vs control) was 0.893 ± 0.13. Further, the “A (before administration), serum DHBV-DNA level” value in assay [2] (heptapeptide 0.5 mg/kg s.c. once every two days for 10 d) stood at 1.286 ± 0.12. Further, the “A (before administration), serum DHBV-DNA level” value in assay [2] (heptapeptide 1 mg/kg s.c. once every two days for 10 d) came out at 1.274 ± 0.14. For the same compound, in assay [1] (setting [8]), the “serum ALT activity” value is listed as 123.24 ± 19.73 U/L, the “serum AST activity” value is 186.97 ± 37.56 U/L, the “GSH-PX activity of liver tissue” value is 267.18 ± 32.13 µmol/g and the “MDA content of liver tissue” value was determined as 6.48 ± 1.65 µmol/g. For the same compound, in assay [1] (setting [9]), the “serum ALT activity” value amounted to 86.52 ± 28.72 U/L, the “serum AST activity” value came to 148.62 ± 31.25 U/L, the “GSH-PX activity of liver tissue” value came out at 308.28 ± 38.54 µmol/g and the “MDA content of liver tissue” value is 2.75 ± 1.36 µmol/g. For the same compound, the “serum ALT, AST activities compared with model control group” value in assay [1] (large dose (0.17 mg/kg) and small dose (0.085 mg/kg) groups, P <0.01) is “declined significantly”. In assay [1] (setting [10]), the “liver tissue GSH-Px activities compared with model control group” value was “significantly higher than that of the model control group” and the “liver tissue MDA content compared with model control group” value is “significantly lower than that of the model control group”. The “protection for acute liver injury (conclusion)” value in assay [1] (mice, carbon tetrachloride) is listed as “presents protection for the acute liver injury resulted from carbon tetrachloride”.
